According to patent US20260306459A1, “INHIBITORS OF NSUN1- AND NSUN2-MEDIATED ACTIVE STRUCTURES” (THE UNIVERSITY OF CHICAGO, priority 2023, published 2026):
Entries after “also recorded” stand apart in the source; their conditions may differ.

Legend:
[1] = test system: leukemia and lung cancer cell lines; assay: Functional (MTT) screening of NSUN1/2-targeting libraries in leukemia and lung cancer cell lines; type: cell-based, human; conditions: for Bioactive positive hit, tumor cell growth inhibition and lineage preference: leukemia and lung cancer cell lines; for Efficacy of tumor cell growth inhibition: multiple leukemia lines and/or lung cancer cell lines
Experimental: (§1) FIGS. 11A-11D display scatter plot representations of screening results for AI-designed NSUN1-targeting compound libraries in a venetcoclax-resistant human myeloid leukemia cell line (SC), lung cancer cell line (H82), and venetoclax resistant human […], and a schematic representation of categorization of the results. A human myeloid leukemia cell Line (SC), a lung cancer cell line (H82 or K562) were both incubated at drug concentration 10 μM/μL overnight. MTT assays were performed after 24 hours, and changes were calculated as the percentage of mean absorbance (n=3) versus mean absorbance of drug-free control (n=3). Negative outliers indicated in red ovals. FIG. 11A depicts the results of an NSUN1-targeting drug library, 74 drugs, comparing growth/inhibition in H-82 (Y axis) and SC (X axis) cell lines. FIG. 11B depicts the results of an NSUN2-targeting drug library, 102 drugs, comparing growth/inhibition in H-82 (Y axis) and SC (X axis) cell lines. FIG. 11C depicts the results of an NSUN1-targeting drug library, 74 drugs, comparing growth/inhibition in K562 (Y axis) and SC (X axis) cell lines. FIG. 11D is a schematic representation showing categorization of the results from screens performed as described in FIG. 11, and validation experiments as described in FIG. 12.
(§2) FIGS. 12A-12J display bar graphs displaying the results of validation experiments for small molecule inhibitors of NSUN1/2-ACS interactions as identified herein. Drug validation of select SC, H82, and/or K562 inhibiting compounds in mouse acute myeloid leukemia cell Line (C1498), SC cells, H82 cells, and/or K562 cells. NSUN1-17 and/or venetoclax acted as controls. Inhibition of cell vitality was identified as dose-dependent for certain small molecules, not merely cytotoxic. In brief, stock with concentration 0.4×10^6 test (e.g., SC, H82, K562, or C1498, as labelled) cells/mL, and 10 μM/μL drug was serially diluted into drug-free cell stock to reach concentrations of 1 μM/μL and […] and split into 100 μL volumes in a 96-well plate. MTT assays performed after 24 hour incubation. Percentages calculated as a difference in mean absorbance of each drug triplicate and mean absorbance in drug-free cell triplicate. Red bars represent standard errors. The concentration of drug represented by each column is from left to right as written in the figure keys. FIGS. 12A-12E provide results from independent repeats for different groupings of small molecules tested against C1498 cells. FIGS. 12F-12G provide results from independent repeats for different groupings of small molecules tested against H82 cells. FIGS. […] provide results from independent repeats for different groupings of small molecules tested against SC cells. FIG. 12J provide results from an assay against K562 cells.
The inventors then designed a protocol for functional screening of NSUN1/2-targeting supercomputing/AI-derived compound libraries as schematically presented in FIGS. 5A-5G. Briefly, the library compounds were obtained from various chemical companies/vendors and dissolved in DMSO, and then applied to 96-well plates that contained leukemia and/or other cancer cells that were resistant to venetoclax. Both the routine colorimetric assay (MTT assay) and the newly developed NSUN1/2-targeting fluorescence quenching and release (FQR) assay were performed to select bioactive compounds for further quantitative study to confirm that they targetNSUN1/2 and their associated ACS. As described below, the compound libraries screened through cancer cell proliferation and/or NSUN1/2 localization to the ACS successfully identified numerous promising compounds that can inhibit the leukemia cell growth and appear to target the NSUN1-mediated ACS (see Table 2). This success has proven the feasibility and efficacy of the described supercomputing/AI design and functional screening of the NSUN1/2-targeting drug libraries. In some aspects, screening is conducted using drug-resistant cell lines. […]

C1498 cells = assay: MTT growth inhibition in myeloid leukemia cell line C1498; type: cell-based, mouse; conditions: C1498, mouse myeloid leukemia, wrapped cell
Description: (§3) FIGS. 8A-8B display a schematic of an 5-ethynyl uridine click chemistry (EC)-coupled flow cytometry (EC-FCM) assay (FIG. 8A), while FIG. 8B depicts the results of an EC-FCM assay showing distinct drug-specific signatures/patterns of nascent RNA synthesis inhibition in the venetoclax sensitive leukemia cell line (K1). The MTT assay measures cell viability and proliferation as well as cytotoxicity of compounds by assessing cellular metabolic activity. The associated measurement can be described as cell viability, cell killing, and/or growth inhibition.
as §2
The inventors then designed a protocol for functional screening of NSUN1/2-targeting supercomputing/AI-derived compound libraries as schematically presented in FIGS. 5A-5G. Briefly, the library compounds were obtained from various chemical companies/vendors and dissolved in DMSO, and then applied to 96-well plates that contained leukemia and/or other cancer cells that were resistant to venetoclax. Both the routine colorimetric assay (MTT assay) and the newly developed NSUN1/2-targeting fluorescence quenching and release (FQR) assay were performed to select bioactive compounds for further quantitative study to confirm that they targetNSUN1/2 and their associated ACS. As described below, the compound libraries screened through cancer cell proliferation and/or NSUN1/2 localization to the ACS successfully identified numerous promising compounds that can inhibit the leukemia cell growth and appear to target the NSUN1-mediated ACS (see Table 2). This success has proven the feasibility and efficacy of the described supercomputing/AI design and functional screening of the NSUN1/2-targeting drug libraries. In some aspects, screening is conducted using drug-resistant cell lines. In some aspects, screening is conducted using drug-sensitive cell lines. In some aspects, screening is conducted in leukemia cell lines. In some aspects, screening is conducted in other cancer cell lines besides leukemia (e.g., lung cancer cell lines). In some aspects, NSUN1/2-ACS inhibitors identified are verified in additional cell lines and/or animal models (see e.g., Tables 4-6).

H82 cells = assay: MTT growth inhibition in venetoclax-resistant lung cancer cell line H82; type: cell-based, human; conditions: H82, venetoclax-resistant human lung cancer, wrapped cell
Description: as §3, §1
FIGS. 12A-12J display bar graphs displaying the results of validation experiments for small molecule inhibitors of NSUN1/2-ACS interactions as identified herein. Drug validation of select SC, H82, and/or K562 inhibiting compounds in mouse acute myeloid leukemia cell Line (C1498), SC cells, H82 cells, and/or K562 cells. NSUN1-17 and/or venetoclax acted as controls. Inhibition of cell vitality was identified as dose-dependent for certain small molecules, not merely cytotoxic. In brief, stock with concentration 0.4×10^6 test (e.g., SC, H82, K562, or C1498, as labelled) cells/mL, and 10 μM/μL drug was serially diluted into drug-free cell stock to reach concentrations of 1 μM/μL and […] and split into 100 μL volumes in a 96-well plate. MTT assays performed after 24 hour incubation. Percentages calculated as a difference in mean absorbance of each drug triplicate and mean absorbance in drug-free cell triplicate. […]

SC cells = assay: MTT growth inhibition in venetoclax-resistant monocytic leukemia cell line SC; type: cell-based, human; conditions: for Effective cell lines: SC: venetoclax-resistant human monocytic leukemia, wrapped cell
Description: as §3, §1, §2
The inventors then designed a protocol for functional screening of NSUN1/2-targeting supercomputing/AI-derived compound libraries as schematically presented in FIGS. 5A-5G. Briefly, the library compounds were obtained from various chemical companies/vendors and dissolved in DMSO, and then applied to 96-well plates that contained leukemia and/or other cancer cells that were resistant to venetoclax. […]

[2] = molecular target: T1, NSUN2-RNA polymerase II (RNAPII) interaction (Homo sapiens, UniProt Q08J23); assay: PL-RCA-FCM, NSUN2-RNAPII interaction; type: cell-based
T1 construct: RNAPII CTD2-S2P
Description: (§4) Black=negative control, blue=positive control, no drug=red.
(§5) The PL-RCA-CM/imaging technique utilized in the inventors previous work (Cheng, J. X. et al., Nature Communications 2018) was suitable to visualize and semi-quantify the NSUN1/2-mediated ACS in cells. However, the previous technique had the disadvantage of having a low sensitivity and low throughput. To overcome this bottleneck, as described herein, the inventors developed NSUN1/2-targeting fluorescence quenching and release (FQR) plate assay (FIG. 6A) and PL-RCA flow cytometry (PL-RCA-FCM) technology (FIG. 6B) for screening of NSUN1/2-targeting drug libraries and quantitatively measuring NSUN1/2-mediated ACS with and without drugs in a lineage-specific and high-throughput manner. The new PL-RCA-FCM detected very strong PL-RCA signals (>2 logs) of the NSUN2-mediated interactions with m5C, RNAPII CTD2-S2P and BRD4, particularly in the venetoclax-resistant leukemia cells (SC) (FIG. 6C), in comparison to the venetoclax-sensitive K1 cells (FIG. 6D).

NSUN1-c-MYC interaction = NSUN1-c-MYC interaction (Homo sapiens, UniProt P46087); assay: PL-RCA-FCM, NSUN1-c-MYC interaction; type: cell-based
Description: (§6) FIGS. 5A-5G display a pipeline of computational design and functional screening of small-molecule compound libraries as well as exemplary characterization and validation of identified positive hit compounds and their targets. FIGS. 5A-5D display an exemplary experimental procedure, beginning with characterization of NSUN1 and/or NSUN2 putative binding modules for interaction with ACS components (FIGS. 5A-5B), a graphic displaying the design of a small molecule library and testing of the putative small molecule NSUN1/2-ACS inhibitors in cell lines (FIG. 5C), characterization of the NSUN1/2-ACS inhibitors interactions with the ACS machinery (FIG. 5D).
as §4
(§7) The PL-RCA-CM/imaging technique utilized in the inventors previous work (Cheng, J. X. et al., Nature Communications 2018) was suitable to visualize and semi-quantify the NSUN1/2-mediated ACS in cells. […] To overcome this bottleneck, as described herein, the inventors developed NSUN1/2-targeting fluorescence quenching and release (FQR) plate assay (FIG. 6A) and PL-RCA flow cytometry (PL-RCA-FCM) technology (FIG. 6B) for screening of NSUN1/2-targeting drug libraries and quantitatively measuring NSUN1/2-mediated ACS with and without drugs in a lineage-specific and high-throughput manner. […]

NSUN2-c-MYC interaction = NSUN2-c-MYC interaction (Homo sapiens, UniProt Q08J23); assay: PL-RCA-FCM, NSUN2-c-MYC interaction; type: cell-based
Description: as §4, §5

[3] = molecular target: T2, NSUN1-eRNAPII interaction (Homo sapiens, UniProt P46087); assay: PL-RCA-FCM, NSUN1-eRNAPII interaction; type: cell-based
T2 construct: RNAPII
Description: as §6, §4, §7

[4] = molecular target: NSUN2-mitochondrial RNA polymerase (POLRMT) interaction (Homo sapiens, UniProt Q08J23); assay: PL-RCA-FCM, NSUN2-POLRMT interaction; type: cell-based
Description: (§8) FIG. 23 provides PL-RCA-FCM results and an associated schematic showing that NSUN2-11 can disrupt the interactions between NSUN2 and mitochondrial RNA polymerase (POLRMT) as well as mitochondrial translation initiation factor 3 (MTIF3). RNA:m5C/NSUN1/2-mediated transcription and translation complexes (RNATTC) mediate multidrug resistance through regulating multi-bioprocesses and multi-organelles' functions in cancer cells.
as §5

[5] = molecular target: NSUN2-mitochondrial translation initiation factor 3 (MTIF3) interaction (Homo sapiens, UniProt Q08J23); assay: PL-RCA-FCM, NSUN2-MTIF3 interaction; type: cell-based
Description: as §8, §5

T1 sequence (Q08J23 whole entry): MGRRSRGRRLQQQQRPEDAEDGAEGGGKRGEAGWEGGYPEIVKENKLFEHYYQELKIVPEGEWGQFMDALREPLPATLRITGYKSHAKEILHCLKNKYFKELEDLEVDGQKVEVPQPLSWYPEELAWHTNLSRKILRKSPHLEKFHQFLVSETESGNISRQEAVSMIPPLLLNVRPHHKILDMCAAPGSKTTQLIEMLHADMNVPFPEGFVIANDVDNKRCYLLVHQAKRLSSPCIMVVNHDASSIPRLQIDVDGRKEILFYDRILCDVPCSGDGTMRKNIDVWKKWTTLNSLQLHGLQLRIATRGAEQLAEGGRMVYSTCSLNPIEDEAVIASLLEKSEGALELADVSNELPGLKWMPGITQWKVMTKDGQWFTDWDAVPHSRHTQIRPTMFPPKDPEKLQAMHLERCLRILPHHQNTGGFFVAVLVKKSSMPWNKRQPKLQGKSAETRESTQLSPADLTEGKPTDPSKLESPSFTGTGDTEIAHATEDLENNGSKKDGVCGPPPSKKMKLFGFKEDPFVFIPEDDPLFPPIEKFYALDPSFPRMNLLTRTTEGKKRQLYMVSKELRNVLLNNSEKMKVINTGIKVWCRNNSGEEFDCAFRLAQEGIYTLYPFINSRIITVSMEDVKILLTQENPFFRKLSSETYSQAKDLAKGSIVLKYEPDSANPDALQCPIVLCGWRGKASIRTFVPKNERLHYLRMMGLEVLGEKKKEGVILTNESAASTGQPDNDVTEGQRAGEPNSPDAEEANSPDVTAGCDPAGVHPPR
NSUN2-c-MYC interaction, sequence (Q08J23 whole entry): as above
NSUN2-mitochondrial translation initiation factor 3 (MTIF3) interaction, sequence (Q08J23 whole entry): as above
NSUN2-mitochondrial RNA polymerase (POLRMT) interaction, sequence (Q08J23 whole entry): as above
T2 sequence (P46087 whole entry): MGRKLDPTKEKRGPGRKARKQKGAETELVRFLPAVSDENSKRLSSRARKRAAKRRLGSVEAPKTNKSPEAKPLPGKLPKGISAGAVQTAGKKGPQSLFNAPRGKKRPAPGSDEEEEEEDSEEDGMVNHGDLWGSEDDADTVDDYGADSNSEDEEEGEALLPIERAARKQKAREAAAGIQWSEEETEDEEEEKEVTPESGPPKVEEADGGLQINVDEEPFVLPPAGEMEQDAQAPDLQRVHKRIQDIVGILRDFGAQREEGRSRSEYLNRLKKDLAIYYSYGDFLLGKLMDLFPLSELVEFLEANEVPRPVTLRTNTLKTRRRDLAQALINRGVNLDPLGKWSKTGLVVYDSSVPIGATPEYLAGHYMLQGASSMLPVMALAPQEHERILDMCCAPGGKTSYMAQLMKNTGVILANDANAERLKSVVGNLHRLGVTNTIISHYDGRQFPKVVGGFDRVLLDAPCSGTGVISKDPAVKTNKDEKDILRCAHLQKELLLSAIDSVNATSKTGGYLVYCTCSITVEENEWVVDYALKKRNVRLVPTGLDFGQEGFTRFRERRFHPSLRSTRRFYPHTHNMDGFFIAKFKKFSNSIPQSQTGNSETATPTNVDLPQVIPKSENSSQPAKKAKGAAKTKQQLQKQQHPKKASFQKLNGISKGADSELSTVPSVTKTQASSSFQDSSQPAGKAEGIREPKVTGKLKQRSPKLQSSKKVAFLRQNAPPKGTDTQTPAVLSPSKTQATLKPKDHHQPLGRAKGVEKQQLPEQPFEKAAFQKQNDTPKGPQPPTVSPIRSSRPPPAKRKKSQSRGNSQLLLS
NSUN1-c-MYC interaction, sequence (P46087 whole entry): as above

Structure (SMILES) | Bioactive positive hit, tumor cell growth inhibition and lineage preference [1] | Effective cell lines: C1498 (C1498 cells) | other results
NC1(C(=O)NC(CCO)c2ccc(Cl)cc2)CCN(c2ncnc3[nH]ccc23)CC1 (stereo not shown) [NSUN1-9] | inhibits tumor cell growth in a leukemia preferential manner | SC & C1498 > | Effective cell lines: H82 (H82 cells): SC & C1498 >; Effective cell lines: SC (SC cells): SC & C1498 >
CC(C)C[C@H](NC(=O)[C@@H](O)[C@H](N)Cc1ccccc1)C(=O)O [NSUN1-10, Bestatin or Ubenimex, reference compound] | inhibits tumor cell growth in a leukemia preferential manner | – | –
Nc1ncccc1-c1cc(Cc2ccc(COc3ccccn3)cc2)no1 [NSUN1-11] | inhibits tumor cell growth in a non-lineage specific manner | – | Inhibition of growth of venetoclax-resistant leukemia (SC) cells (SC cells): inhibition of the growth of venetoclax-resistant SC cells; also recorded: inhibit drug (venetoclax)-resistant leukemia cells
C=CC(=O)Nc1cccc(-c2cccc3cnc(Nc4ccc(N5CCN(CCO)CC5)c(F)c4F)nc23)c1 [NSUN1-14] | – | – | Efficacy of tumor cell growth inhibition [1]: high-efficacy of tumor cell growth inhibition
CC(C)Cc1nc(NC(=O)c2cc(-c3ccc4c(c3)CCO4)n[nH]2)n[nH]1 [NSUN1-17.16] | inhibits tumor cell growth in a non-lineage specific manner | – | –
NC1(Cc2ccc(Cl)cc2)CCN(c2ncnc3[nH]ccc23)CC1 [NSUN1-19] | inhibits tumor cell growth in a lung cancer preferential manner | H82 > SC & | Effective cell lines: H82 (H82 cells): H82 > SC &; Effective cell lines: SC (SC cells): H82 > SC &
Nc1nc(Cn2c(=O)oc3ccccc32)nc(Nc2ccccc2)n1 [NSUN1-22] | inhibits tumor cell growth in a lung cancer preferential manner | C1498 (weakly) | –
Oc1nc(Nc2ccc(Cl)cc2)nc2nccc(-c3ccncc3)c12 [NSUN1-67] | inhibits tumor cell growth in a non-lineage specific manner | – | –
Cc1[nH]nc2ccc(-c3cncc(OCC(N)Cc4ccccc4)c3)cc12 (stereo not shown) [NSUN1-73] | – | – | Efficacy of tumor cell growth inhibition [1]: high-efficacy of tumor cell growth inhibition
O=C(Nc1cccc(-c2nnc3n2CCCC3)c1)c1cc(-c2ccccc2)n[nH]1 [NSUN1-74] | inhibits tumor cell growth in a non-lineage specific manner | C1498 (weakly) | –
COc1ccc2c(c1)CCc1c(C(=O)NCCc3nc4cc(C)ccc4[nH]3)n[nH]c1-2 [NSUN2-11] | inhibits tumor cell growth in a non-lineage specific manner | – | Effect on NSUN2-mediated interaction with RNA polymerase II [2]: can disrupt; Effect on NSUN1 interaction with c-MYC (NSUN1-c-MYC interaction): can disrupt; Effect on NSUN2-mediated interaction with c-MYC (NSUN2-c-MYC interaction): can disrupt; Effect on NSUN1 interaction with eRNAPII/RNAPII [3]: can disrupt; Effect on NSUN2-POLRMT interaction [4]: can disrupt; Effect on NSUN2-MTIF3 interaction [5]: can disrupt
O=c1ccc2ccc(OCN3CCN(c4cccc5sccc45)CC3)cc2[nH]1 [NSUN2-35, reference compound] | inhibits tumor cell growth in a lung cancer preferential manner | – | –
O=C(Nc1ccc(CN2CCCCC2)cc1)c1cccc(COc2ccc(Br)cc2)c1 [NSUN2-37] | inhibits tumor cell growth in a non-lineage specific manner | H82 & SC > | Effective cell lines: H82 (H82 cells): H82 & SC >; Effective cell lines: SC (SC cells): H82 & SC >
